The nature of experiment [1]: Cytotoxicity against human Mel1 cells. The experiment is classed as functional. As to conditions: read-out: ED50 (the source's name).
A short description of experiment [2]: Cytotoxicity against human Mel2 cells. The format is functional. Particulars: read-out: ED50 (the source's name).

In brackets after ≈: the same amount, converted by molar mass.

On to `C=C(C)[C@@H]1CC[C@]2(C(=O)O)CC[C@]3(C)[C@H](CC[C@@H]4[C@@]5(C)CC[C@H](O)C(C)(C)[C@@H]5C[C@H](O)[C@]43C)[C@@H]12`, for which the EC50 came to 17.1 µg/mL (≈ 36.2 µM) in experiment [1] and 7.2 µg/mL (≈ 15.2 µM) in experiment [2].

For the compound `C=C(C)[C@@H]1CC[C@]2(C(=O)O)CC[C@]3(C)[C@H](CC[C@@H]4[C@@]5(C)CC[C@H](O)C(C)(C)[C@@H]5[C@@H](O)[C@H](O)[C@]43C)[C@@H]12`, the values for the EC50 in experiment [1] and in experiment [2] were 10.9 µg/mL (≈ 22.3 µM) and 16.8 µg/mL (≈ 34.4 µM), respectively.

In the case of `C=C(C)[C@@H]1CC[C@]2(C(=O)O)CC[C@]3(C)[C@H](CC[C@@H]4[C@@]5(C)[C@H](O)C[C@H](O)C(C)(C)[C@@H]5C[C@H](O)[C@]43C)[C@@H]12`, the EC50 in experiment [1] and in experiment [2] was more than 20 µg/mL in each case.

On to `C=C(C)[C@@H]1CC[C@]2(C(=O)O)CC[C@]3(C)[C@H](CC[C@@H]4[C@@]5(C)CC[C@H](O)C(C)(C)[C@@H]5CC[C@]43C)[C@@H]12` [BETULINIC ACID], for which the EC50 is 3.3 µg/mL (≈ 7.23 µM) in experiment [1] and 1 µg/mL (≈ 2.19 µM) in experiment [2].

For `C=C(C)[C@@H]1CC[C@]2(C(=O)O)CC[C@]3(C)[C@H](CC[C@@H]4[C@@]5(C)CCC(=O)C(C)(C)[C@@H]5CC[C@]43C)[C@@H]12` [BETUNOLIC ACID], the figures for the EC50 in experiment [1] and in experiment [2] were 16 µg/mL (≈ 35.2 µM) and 0.1 µg/mL (≈ 0.22 µM), respectively.

Source of the values: ChEMBL document CHEMBL1155645, “Microbial transformations of the antimelanoma agent betulinic acid” (2000).
